Patent US7425565B2, “Use of benzothiopenes to treat and prevent prostate cancer” (Cedars-Sinai Medical Center, priority 2002, dated 2008)

How the values were obtained:
ER-β mRNA = test: Real-time RT-PCR of MSKPC9 xenograft tumors, ER-β mRNA; format: in vivo; conditions: MSKPC9 tumor xenografts, treated vs control
Protocol: Total RNA was extracted from prostate tumors using TRIZOL reagent (available from Invitrogen Corporation; Carlsbad, Calif.). DNase I (obtained from Ambion, Inc.; Austin, Tex.) was used to rid the samples of any extraneous DNA that might interfere with the reaction. The yield was quantified spectrophotometrically. Total RNA was reverse-transcribed into cDNA and PCR was performed in the same reaction by using TAQMAN One-Step RT-PCR Master Mix Reagents Kit (obtained from Applied Biosystems; Foster City, Calif.; hereinafter “Applied Biosystems”). Probes were labeled with 6-FAM on the 5′ end and TAMRA on the 3′ end. β-actin was used as the endogenous control and normalizer. The primer pairs used are depicted in Table 1, as follows:
The PCR cycling conditions were performed for all of the samples as follows: 30 minutes at 48° C. for RT step; 10 minutes at 95° C. for […] GOLD Activation (available from Applied Biosystems); and 40 cycles for the melting (95° C., 15 seconds), and annealing/elongation (60° C. for one minute) steps. PCR reactions for each template were done in triplicate using 1 μg of total mRNA per sample. Each gene-specific primer pair was tested on standard 384-well plates. […]
The comparative Ct method (PE Applied Biosystems) was used to determine relative quantification of gene expression for each gene compared with the β-actin control. […]

[1] = Clinical study of raloxifene: toxicity (NCI Common Toxicity Criteria, v2.0); format: in vivo, human
Protocol: Response to therapy was assessed after the first two months of therapy and then monthly thereafter. Toxicity was assessed monthly at each study visit. […] A partial response (“PR”) required a decrease by >50% of the sum of the products of the perpendicular diameters for all measurable lesions lasting at least one month, no appearance of new lesions, and a reduction in serum PSA by >50% on two consecutive occasions at least one month apart. For patients being evaluated by bone metastases, a PR required a reduction in serum PSA by >50% on two consecutive occasions at least one month apart an improvement in bone scan (reduction in intensity or size of one or more metastatic foci and no new foci of radionuclide uptake unless due to […] healing documented on plain radiograph, CT scan, or MRI scan). During this time there should have been no cancer-associated deterioration in weight, performance status, or symptoms. Progressive disease (“PD”) was defined by any of the following: (1) increase >25% in the sum of the products of the perpendicular diameters of bidimensionally measurable lesions in the sum of the transverse diameters of unidimensionally measurable lesions, (2) the appearance of new lesions, and (3) by the increase in serum PSA >50% over baseline as documented on two successive measurements >28 days apart. […] For PD to be scored by PSA criteria alone, a confirmatory PSA determination was required and obtained two weeks after the value representing a >50% increase. Patients who had improvement in one objective parameter while meeting the criteria for PD by another parameter were scored as having PD.
Treatment was administered with monthly lab draws and follow-up visits with the physician. […] Patients received 1 mg oral COUMADIN daily (or 0.5 mg oral COUMADIN daily if patients were already taking aspirin).
The reported urinary tract infection (“UTI”) (1) and hematuria (1) were thought to be related to the patient's underlying disease. Two grade 3 events were reported: a grade 3 arthralgia/myalgia thought to be related to the patient's recent injury, and a grade 3 elevated creatinine that was attributed to the patient's disease progression.

O=C(c1ccc(OCCN2CCCCC2)cc1)c1c(-c2ccc(O)cc2)sc2cc(O)ccc12 [raloxifene]
ER-β mRNA, difference between treatment groups (ER-β mRNA): no difference | severity of most drug related toxicities reported ([1]; 60 mg oral daily): mild (grade 1-2) | tolerability ([1]; 60 mg oral daily, with low dose COUMADIN): well tolerated | Patients experiencing drug-related toxicity: Anemia ([1]; Grade 1): 2 patients | Patients experiencing drug-related toxicity: Arthralgia/Myalgia ([1]; Grade 1): 2 patients | Patients experiencing drug-related toxicity: Bicarbonate ([1]; Grade 1): 1 patients | Patients experiencing drug-related toxicity: Bone Pain ([1]; Grade 1): 1 patients | Patients experiencing drug-related toxicity: Diarrhea ([1]; Grade 1): 1 patients | Patients experiencing drug-related toxicity: Edema ([1]; Grade 1): 1 patients | Patients experiencing drug-related toxicity: Fatigue/Malaise ([1]; Grade 1): 1 patients | Patients experiencing drug-related toxicity: Hematuria ([1]; Grade 1): 1 patients | Patients experiencing drug-related toxicity: Hot flashes ([1]; Grade 1): 2 patients | Patients experiencing drug-related toxicity: Hypercholesterolemia ([1]; Grade 1): 2 patients | Patients experiencing drug-related toxicity: Hyperglycemia ([1]; Grade 1): 1 patients | Patients experiencing drug-related toxicity: Hypoalbuminemia ([1]; Grade 1): 2 patients | Patients experiencing drug-related toxicity: Hypoglycemia ([1]; Grade 1): 1 patients | Patients experiencing drug-related toxicity: Increased Alkaline Phosphatase ([1]; Grade 1): 3 patients | Patients experiencing drug-related toxicity: Increased Creatinine ([1]; Grade 1): 1 patients | Patients experiencing drug-related toxicity: Increased SGOT (AST) ([1]; Grade 1): 1 patients | Patients experiencing drug-related toxicity: Nausea/Vomiting ([1]; Grade 1): 1 patients | Patients experiencing drug-related toxicity: Rash ([1]; Grade 1): 1 patients | Patients experiencing drug-related toxicity: UTI ([1]; Grade 1): 1 patients | Patients experiencing drug-related toxicity: Anemia ([1]; Grade 2): 1 patients | Patients experiencing drug-related toxicity: Bone Pain ([1]; Grade 2): 1 patients | Patients experiencing drug-related toxicity: Constipation ([1]; Grade 2): 2 patients | Patients experiencing drug-related toxicity: Fatigue/Malaise ([1]; Grade 2): 1 patients | Patients experiencing drug-related toxicity: Hypertriglyceridemia ([1]; Grade 2): 1 patients | Patients experiencing drug-related toxicity: Hypotension ([1]; Grade 2): 1 patients | Patients experiencing drug-related toxicity: Nausea/Vomiting ([1]; Grade 2): 1 patients | Patients experiencing drug-related toxicity: Arthralgia/Myalgia ([1]; Grade 3): 1 patients | Patients experiencing drug-related toxicity: Hyperglycemia ([1]; Grade 3): 1 patients | Patients experiencing drug-related toxicity: Increased Creatinine ([1]; Grade 3): 1 patients
